Numbered stars: 1 amine (or outer) side, 2 acyl side, 3 side chain; on linkers, the order of the positions; unused ones are H or OH. Bridge positions count the residues as written; N and C are the ends. Side chains are listed from the residue outwards. Peptide text beside a SMILES is read from it. * marks the point of attachment. C20 diacid = O=C(O)CCCCCCCCCCCCCCCCCCC(=O)*; γGlu = O=C(O)[C@H](CCC(=O)[*:2])N[*:1]; AEEA = NCCOCCOCC(=O)O
Experiments:
[1] = target: T1, human calcitonin (a) receptor in BHK570 cells (Homo sapiens, UniProt P30988); test: ASSAY (II)a functional assay, human calcitonin receptor (CRE luciferase); type: cell-based; conditions: read-out: hCTR funct. EC50
T1 construct: expressed in transfected cells
T1 sequence (P30988 25-474): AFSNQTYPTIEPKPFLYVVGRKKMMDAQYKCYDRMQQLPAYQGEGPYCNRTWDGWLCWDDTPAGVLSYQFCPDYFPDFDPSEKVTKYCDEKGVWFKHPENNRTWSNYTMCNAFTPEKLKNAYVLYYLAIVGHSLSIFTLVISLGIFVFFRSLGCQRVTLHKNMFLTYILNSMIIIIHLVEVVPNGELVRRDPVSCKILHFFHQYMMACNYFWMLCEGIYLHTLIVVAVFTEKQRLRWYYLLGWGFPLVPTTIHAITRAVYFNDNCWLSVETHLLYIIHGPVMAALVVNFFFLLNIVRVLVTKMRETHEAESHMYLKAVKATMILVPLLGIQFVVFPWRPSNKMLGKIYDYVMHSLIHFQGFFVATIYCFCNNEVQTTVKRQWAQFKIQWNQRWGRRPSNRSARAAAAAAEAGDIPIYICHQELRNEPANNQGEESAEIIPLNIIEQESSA
Summary of the method: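 Ligand exposure 3 h at 37 °C, 5% CO2 in DMEM with 10% FBS, 10 mM Hepes pH 7.4. cAMP-driven luciferase read by luminescence after 30 min LucLite at room temperature.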

[2] = ASSAY (III) ThT fibrillation assay for physical stability; type: physicochemical
Summary of the method: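 Formulations with 1 μM ThT, pH adjusted as required, incubated at 37 °C with 960 rpm orbital shaking; fluorescence (ex 444/em 485 nm) read every 20 min. Fibrillation reported as mean ThT fluorescence ± SD of 4–8 replicates at time points; polypeptide concentration measured by reverse-phase HPLC before and after, post-centrifugation.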

[3] = target: T2, human calcitonin receptor (Homo sapiens, UniProt P30988); test: ASSAY (VII) binding to the human calcitonin receptor (SPA, 125I-Calcitonin); conditions: read-out: hCTR bind IC50;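 also: cell membranes (35 ng/µL) combined with SPA beads in 40 µL of pH 7.4 Hepes buffer, 384-well format, signal counted on a TopCounter instrument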
T2 construct: expressed in transfected cells
T2 sequence (P30988 25-474): T1 sequence (P30988 25-474)

[4] = target: T3, human amylin receptor (membranes from Amylin 3(a)/CRE-luc cells) (Homo sapiens, UniProt O60896+P30988); test: ASSAY (V) binding to the human amylin receptor (SPA, 125I-rat amylin); conditions: for IC50: Table 4, read-out: hAmylin-R bind IC50;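 as to all read-outs here: competition binding of cell membranes (35 ng/µL) mixed with SPA beads in 384-well plates at 40 µL total volume, read by scintillation counting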
T3 construct: expressed in transfected cells
T3 sequence (P30988 25-474): T1 sequence (P30988 25-474)
T3 sequence (O60896 24-148 partner): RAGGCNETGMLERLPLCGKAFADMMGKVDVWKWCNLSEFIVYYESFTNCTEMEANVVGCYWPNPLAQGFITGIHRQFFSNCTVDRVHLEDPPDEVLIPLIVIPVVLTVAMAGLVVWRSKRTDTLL

[5] = Table 5, selectivity, hCTR bind IC50 / hAmylin-R bind IC50
[6] = Table 5a, selectivity, hCTR bind IC50 / hAmylin-R bind IC50
[7] = Table 5b, selectivity, hCTR bind IC50 / hAmylin-R bind IC50
[8] = Table 5c, selectivity, hCTR bind IC50 / hAmylin-R bind IC50
[9] = Table 7, human binding selectivity, included for comparison
[10] = Table 7a (preferred compounds), human binding selectivity, included for comparison
[11] = ratio of human calcitonin receptor binding IC50 to human amylin receptor binding IC50

Row | EC50 [1] [nM] | ThT pH 4.0 lag time (h) [2] [h] | IC50 [3] [nM] | IC50 [4] [nM] | Ratio hCT/hAmylin binding [4, 5] | Ratio hCT/hAmylin binding [4, 6] | Ratio hCT/hAmylin binding [4, 7] | Ratio hCT/hAmylin binding [4, 8] | Ratio hCT/hAmylin binding [4, 9] | Ratio hCT/hAmylin binding [4, 10] | Ratio hCT/hAmylin binding [4, 11] | SMILES
1 | 4.76 | 13 | 42.4 | 0.172 | 246.6 | 246.6 | 246.6 | 246.6 | 246.6 | 246.6 | 246.6 | CC[C@H](C)[C@H](NC(=O)[C@H](C)NC(=O)CNC(=O)[C@H](Cc1ccccc1)NC(=O)[C@H](CC(N)=O)NC(=O)[C@@H]1CCCN1C(=O)[C@H](CO)NC(=O)[C@H](CO)NC(=O)[C@H](Cc1c[nH]cn1)NC(=O)[C@H](CCCNC(=N)N)NC(=O)[C@H](CC(C)C)NC(=O)[C@H](Cc1ccccc1)NC(=O)[C@H](C)NC(=O)[C@H](C)NC(=O)[C@H](CC(C)C)NC(=O)[C@H](CCCNC(=N)N)NC(=O)[C@H](CCC(N)=O)NC(=O)[C@@H](NC(=O)[C@H](C)NC(=O)[C@@H]1CSSC[C@H](NC(=O)[C@@H](N)CCCCNC(=O)COCCOCCNC(=O)CC[C@H](NC(=O)CCCCCCCCCCCCCCCCCCC(=O)O)C(=O)O)C(=O)N[C@@H](CC(N)=O)C(=O)N[C@@H]([C@@H](C)O)C(=O)N[C@@H](C)C(=O)N[C@@H]([C@@H](C)O)C(=O)N1)[C@@H](C)O)C(=O)N1CCC[C@H]1C(=O)N[C@@H](CO)C(=O)N[C@@H](CO)C(=O)N[C@H](C(=O)N1CCC[C@H]1C(=O)N[C@H](C(=O)NCC(=O)N[C@@H](CO)C(=O)N[C@@H](CC(N)=O)C(=O)N[C@H](C(=O)N[C@@H](Cc1ccc(O)cc1)C(N)=O)[C@@H](C)O)C(C)C)[C@@H](C)O [Example 72] (H-K([AEEA-γGlu-C20 diacid])CNTATCATQRLAAFLRHSSPNFGAIPSSTPVGSNTY-NH2; disulfide 2-7 (inferred); N-terminus assumed)
2 | 1.95 | 23 | 5.14 | 1.19 | 4.3 | – | – | – | 4.3 | 4.3 | – | CC[C@H](C)[C@H](NC(=O)[C@H](C)NC(=O)CNC(=O)[C@H](Cc1ccccc1)NC(=O)[C@H](CC(N)=O)NC(=O)[C@H](CCCCNC(=O)CC[C@H](NC(=O)CC[C@H](NC(=O)CCCCCCCCCCCCCCCCCCC(=O)O)C(=O)O)C(=O)O)NC(=O)[C@H](CO)NC(=O)[C@H](CO)NC(=O)[C@H](Cc1c[nH]cn1)NC(=O)[C@H](CCCNC(=N)N)NC(=O)[C@H](CC(C)C)NC(=O)[C@H](Cc1ccccc1)NC(=O)[C@H](CC(=O)O)NC(=O)[C@H](C)NC(=O)[C@H](CC(C)C)NC(=O)[C@H](CCCNC(=N)N)NC(=O)[C@H](CCC(N)=O)NC(=O)[C@@H](NC(=O)[C@H](C)NC(=O)[C@@H]1CSSC[C@H](NC(=O)[C@@H](N)CCCCN)C(=O)N[C@@H](CC(N)=O)C(=O)N[C@@H]([C@@H](C)O)C(=O)N[C@@H](C)C(=O)N[C@@H]([C@@H](C)O)C(=O)N1)[C@@H](C)O)C(=O)N1CCC[C@H]1C(=O)N[C@@H](CO)C(=O)N[C@@H](CO)C(=O)N[C@H](C(=O)N[C@@H](CC(N)=O)C(=O)N[C@H](C(=O)NCC(=O)N[C@@H](CO)C(=O)N[C@@H](CC(=O)O)C(=O)N[C@H](C(=O)N[C@@H](Cc1ccc(O)cc1)C(N)=O)[C@@H](C)O)C(C)C)[C@@H](C)O [Example 59] (H-KCNTATCATQRLADFLRHSSK([γGlu-γGlu-C20 diacid])NFGAIPSSTNVGSDTY-NH2; disulfide 2-7; N-terminus assumed)
3 | 0.662 | 2 | 1.38 | 0.038 | 36.0 | 36.0 | 36.0 | 36.0 | 36.0 | 36.0 | 36.0 | CC[C@H](C)[C@H](NC(=O)[C@H](C)NC(=O)CNC(=O)[C@H](Cc1ccccc1)NC(=O)[C@H](CC(N)=O)NC(=O)[C@@H]1CCCN1C(=O)[C@H](CO)NC(=O)[C@H](CO)NC(=O)[C@H](Cc1c[nH]cn1)NC(=O)[C@H](CCCNC(=N)N)NC(=O)[C@H](CC(C)C)NC(=O)[C@H](Cc1ccccc1)NC(=O)[C@H](CC(N)=O)NC(=O)[C@H](C)NC(=O)[C@H](CC(C)C)NC(=O)[C@H](CCCNC(=N)N)NC(=O)[C@H](CCC(N)=O)NC(=O)[C@@H](NC(=O)[C@H](C)NC(=O)[C@@H]1CSSC[C@H](NC(=O)[C@@H](N)CCCCNC(=O)COCCOCCNC(=O)CC[C@H](NC(=O)CCCCCCCCCCCCCCCCCCC(=O)O)C(=O)O)C(=O)N[C@@H](CC(N)=O)C(=O)N[C@@H]([C@@H](C)O)C(=O)N[C@@H](C)C(=O)N[C@@H]([C@@H](C)O)C(=O)N1)[C@@H](C)O)C(=O)N1CCC[C@H]1C(=O)N[C@@H](CO)C(=O)N[C@@H](CO)C(=O)N[C@H](C(=O)N[C@@H](CC(N)=O)C(=O)N[C@H](C(=O)NCC(=O)N1CCC[C@H]1C(=O)N[C@@H](CC(N)=O)C(=O)N[C@H](C(=O)N[C@@H](Cc1ccc(O)cc1)C(N)=O)[C@@H](C)O)C(C)C)[C@@H](C)O [Example 50]
4 | 4.75 | 45 | 4.87 | 0.275 | 17.7 | 17.7 | 17.7 | – | 17.7 | 17.7 | 17.7 | CC[C@H](C)[C@H](NC(=O)[C@H](C)NC(=O)CNC(=O)[C@H](Cc1ccccc1)NC(=O)[C@H](CC(N)=O)NC(=O)[C@@H]1CCCN1C(=O)[C@H](CO)NC(=O)[C@H](CO)NC(=O)[C@H](Cc1c[nH]cn1)NC(=O)[C@H](CCCNC(=N)N)NC(=O)[C@H](CC(C)C)NC(=O)[C@H](Cc1ccccc1)NC(=O)[C@H](CC(N)=O)NC(=O)[C@H](C)NC(=O)[C@H](CC(C)C)NC(=O)[C@H](CCCNC(=N)N)NC(=O)[C@H](CCC(N)=O)NC(=O)[C@@H](NC(=O)[C@H](C)NC(=O)[C@@H]1CSSC[C@H](NC(=O)[C@H](CCCNC(=N)N)NC(=O)[C@@H](N)CCCCNC(=O)CC[C@H](NC(=O)CCCCCCCCCCCCCCCCCCC(=O)O)C(=O)O)C(=O)N[C@@H](CC(N)=O)C(=O)N[C@@H]([C@@H](C)O)C(=O)N[C@@H](C)C(=O)N[C@@H]([C@@H](C)O)C(=O)N1)[C@@H](C)O)C(=O)N1CCC[C@H]1C(=O)N[C@@H](CO)C(=O)N[C@@H](CO)C(=O)N[C@H](C(=O)N[C@@H](CC(N)=O)C(=O)N[C@H](C(=O)NCC(=O)N[C@@H](CO)C(=O)N[C@@H](Cc1c[nH]cn1)C(=O)N[C@H](C(=O)N[C@@H](Cc1ccc(O)cc1)C(N)=O)[C@@H](C)O)C(C)C)[C@@H](C)O [Example 44] (H-K([γGlu-C20 diacid])RCNTATCATQRLANFLRHSSPNFGAIPSSTNVGSHTY-NH2; disulfide 3-8)
